The IC50 is the concentration needed to halve the response being measured. A word on the Kd: it is a measure of binding affinity in units of concentration.

The source of these data is article PMC4314249, “Characterizing the Peroxisome Proliferator-Activated Receptor (PPARγ) Ligand Binding Potential of Several Major Flame Retardants, Their Metabolites, and Chemical Mixtures in House Dust” (Environmental Health Perspectives, 2014).

Data set [1] has as its target T1, human PPARγ ligand-binding domain (Homo sapiens, UniProt P37231).
T1 construct: The kit uses the human-derived recombinant PPARγ LBD tagged with an N-terminal GST-tag; purchased Invitrogen
T1 sequence (P37231 238-503 limits assumed): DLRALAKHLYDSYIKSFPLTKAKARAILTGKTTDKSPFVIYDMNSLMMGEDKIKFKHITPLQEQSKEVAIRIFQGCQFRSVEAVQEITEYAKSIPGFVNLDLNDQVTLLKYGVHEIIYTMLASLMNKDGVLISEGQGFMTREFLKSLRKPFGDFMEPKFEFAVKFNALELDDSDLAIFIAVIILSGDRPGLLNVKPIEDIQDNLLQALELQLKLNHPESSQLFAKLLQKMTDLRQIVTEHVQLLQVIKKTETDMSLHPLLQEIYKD
As to the kind of experiment: PolarScreen PPARγ-Competitor fluorescence polarization ligand binding assay. (In general: Fluorescence polarisation rises when a labelled molecule tumbles more slowly, as on binding a larger partner.)

For the next data set, the system named is PPARγ2. Set-up: method as in Suzuki et al. (2013). The settings on record: U2OS reporter assay; ref Suzuki et al. (2013); cited from earlier work.
For a further data set, the target named is T2, PPARγ LBD (Homo sapiens, UniProt P37231).
T2 construct: The kit uses the human-derived recombinant PPARγ LBD tagged with an N-terminal GST-tag; purchased Invitrogen
T2 sequence (P37231 238-503 limits assumed): T1 sequence (P37231 238-503 limits assumed)
In words: PPARγ competitive binding after bioactivation with rat liver S9 fraction (active vs inactive S9). The settings on record: 100 μM, n = 3, rat liver S9.

Data set [2] can be described thus: MEHP formation on incubation of dust with S9 fraction. The data set is classed as in vitro ADME, Sprague-Dawley rats. How it is done: Bioactivation of dust samples. We assessed the influence of biotransformation on ligand binding activity by incubating dust extracts in pooled liver S9 fractions prepared from Sprague-Dawley rats [Rat (Sprague-Dawley) S9 Fractions; Gibco, Grand Island, NY). Bioactivation was assessed in 7 of the 23 dust samples (1 dust sample was tested in triplicate, while the others were tested once because of dust mass limitations) and in SRM 2585 (n = 3). The 7 dust samples were from groups A (samples 5, 7, and 8), B (samples 9 and 10), and C (samples 11 and 12). The influence of biotransformation was also investigated using pure chemical standards. DEHP (100 μM) and a mixture (MIX) containing 1 μM each of FM550, isopropylated triaryl phosphate (ITP), BDE-47, BDE-99, and DEHP were evaluated for binding activity before and after bioactivation. For a detailed description of the method, see Supplemental Material, “Bioactivation of Dust Samples” and Figure S3. Briefly, dust samples were bioactivated by incubation with an S9 fraction (1 mg protein/mL), extracted, and cleaned by dextran-assisted liquid–liquid extraction and phenolic extraction. […]
For each dose level of tested compounds, triplicate samples were prepared and each well was read five times in the plate reader. […]

Setting [3] is: read-out: Kd (dissociation constant).
The mark [4] stands for this setting: calculated from IC50 by equation 3, read-out: Kd (dissociation constant).

Where two headings read alike, the source gives them in different places.

In data set [1], `Oc1c(Br)cc(Br)cc1Br` [2,4,6-TBP, 2,4,6-Tribromophenol] yielded an IC50 of 36.3 µM, a Kd of 18.9 µM and a Relative potency of 0.0063.
In the case of `Oc1c(Cl)cc(Cl)cc1Cl` [2,4,6-TCP, 2,4,6,-trichlorophenol], in data set [1], the Relative potency was found to be 0.0023. Moreover, the IC50 in data set [1] (read-out: IC50) turned out to be 100 µM. Also, the Kd in data set [1] (setting [3]) came out at 52.2 µM.
In the case of `Oc1c(F)cc(F)cc1F` [2,4,6-TFP, 2,4,6-trifluorophenol], the dissociation constant Kd in data set [1] (setting [4]) is > 130 µM. In addition, in data set [1] (read-out: IC50), the 50% inhibitory concentration (IC50) is > 250 µM.
In the case of `Oc1c(I)cc(I)cc1I` [2,4,6-TIP, 2,4,6-triiodophenol], in data set [1], the IC50 was determined as 1.84 µM, the dissociation constant (Kd) turned out to be 0.96 µM and the Relative potency is given as 0.1250.
In data set [1], `Oc1c(Br)ccc(Oc2ccc(Br)cc2Br)c1Br` [3-OH-BDE-47] showed a Relative potency of 0.9583. The 50% inhibitory concentration (IC50) in data set [1] (read-out: IC50) turned out to be 0.24 µM. In data set [1] (setting [3]), the Kd was determined as 0.13 µM.
Regarding `Oc1cc(Oc2ccc(Br)cc2Br)c(Br)cc1Br` [5-OH-BDE-47], the Relative potency in data set [1] amounted to 0.0744. The concentration for half-maximal inhibition (IC50) in data set [1] (read-out: IC50) is 3.09 µM. In addition, the dissociation constant (Kd) in data set [1] (setting [3]) was 1.61 µM.
In data set [1], `Oc1cc(Oc2cc(Br)c(Br)cc2Br)c(Br)cc1Br` [5´-OH-BDE-99] gave a Relative potency of 0.0077. The concentration for half-maximal inhibition (IC50) in data set [1] (read-out: IC50) is 30 µM. The Kd in data set [1] (setting [3]) came to 15.7 µM.
In the case of `Oc1cc(Br)cc(Br)c1Oc1ccc(Br)cc1Br` [6-OH-BDE-47], in data set [1], the “PPARγ binding (in words)” value was “not active ligands” and the Relative potency is on record as < 0.023. In addition, the half-maximal inhibitory concentration (IC50) in data set [1] (read-out: IC50) is > 10 µM. Further, in data set [1] (setting [3]), the dissociation constant (Kd) was > 5.22 µM.
For `Oc1cc(Br)cc(Br)c1Oc1cc(Br)c(Br)cc1Br` [6´-OH-BDE-99], in data set [1], the “PPARγ binding (in words)” value is “not active ligands” and the Relative potency is < 0.0046. The IC50 in data set [1] (read-out: IC50) was > 50 µM. Besides, the dissociation constant Kd in data set [1] (setting [3]) was > 26.1 µM.
With `Brc1ccc(Oc2ccc(Br)cc2Br)c(Br)c1` [BDE-47, 2,2´,4,4´-tetrabromodiphenyl ether], in the data set with PPARγ2, the 5% induction concentration is 10 µM. The IC50 in data set [1] (read-out: IC50) is > 12 µM. Besides, the equilibrium dissociation constant (Kd) in data set [1] (setting [3]) is > 6.25 µM.
Turning to `Brc1ccc(Oc2cc(Br)c(Br)cc2Br)c(Br)c1` [BDE–99, 2,2´,4,4´,5-pentabromodiphenyl ether], the “PPARγ binding (in words)” value in data set [1] is recorded as “no binding was observed”. The concentration for half-maximal inhibition (IC50) in data set [1] (read-out: IC50) is > 250 µM. Besides, in data set [1] (setting [3]), the Kd was > 130 µM.
Turning to `CC(C)(c1ccc(O)cc1)c1ccc(O)cc1` [BPA, bisphenol A], in data set [1], the “PPARγ binding (in words)” value is listed as “did not exhibit any binding”. In addition, in data set [1] (read-out: IC50), the concentration for half-maximal inhibition (IC50) was > 250 µM. For the same molecule, the Kd in data set [1] (setting [3]) is > 130 µM.
Turning to `CCCCC(CC)COC(=O)c1ccccc1C(=O)OCC(CC)CCCC` (centres unmarked) [DEHP, di-(2-ethylhexyl) phthalate], the dissociation constant (Kd) in data set [1] (setting [4]) was > 130 µM. For the same molecule, the 50% inhibitory concentration (IC50) in data set [1] (read-out: IC50) was > 250 µM. In addition, the “change of PPARγ binding potency after bioactivation (in words)” value at PPARγ LBD was “slightly increased”.
With `O=P(O)(Oc1ccccc1)Oc1ccccc1` [DPP, diphenyl phosphate], in data set [1], the concentration for half-maximal inhibition (IC50) worked out at 627 µM, the Kd was determined as 327 µM and the Relative potency was determined as 0.0004.
As to `CCCCC(CC)COC(=O)c1ccccc1C(=O)O` (centres unmarked) [MEHP, mono(2-ethylhexyl) phthalate], the MEHP formation rate entry in data set [2] is “approximately 70 pmol/mg protein/min”.
For the molecule `CCCCC(CC)COC(=O)c1cc(Br)c(Br)c(Br)c1Br` (centres unmarked) [TBB, 2-ethylhexyl-2,3,4,5-tetrabromobenzoate], in data set [1], the concentration for half-maximal inhibition (IC50) is > 250 µM, the Kd was > 130 µM and the “PPARγ binding (in words)” value was “did not show any binding activity”.
As to `O=C(O)c1cc(Br)c(Br)c(Br)c1Br` [TBBA, 2,3,4,5-tetrabromo benzoic acid], in data set [1], the IC50 worked out at 42 µM, the equilibrium dissociation constant (Kd) turned out to be 22.1 µM and the Relative potency came to 0.0055.
In the case of `CCCCOCCOP(=O)(OCCOCCCC)OCCOCCCC` [TBEP, tris(2-butoxyethyl) phosphate], in data set [1], the IC50 worked out at 103 µM, binding was characterised by a dissociation constant (Kd) of 53.7 µM and the Relative potency is given as 0.0022.
Turning to `CCCCC(CC)COC(=O)c1c(Br)c(Br)c(Br)c(Br)c1C(=O)OCC(CC)CCCC` (centres unmarked) [TBPH, bis(2-ethylhexyl) tetrabromophthalate], in data set [1], the half-inhibitory concentration (IC50) is > 250 µM, the Kd is > 130 µM and the “PPARγ binding (in words)” value is “did not show any binding activity”.
Regarding `CC(C)(c1cc(Cl)c(O)c(Cl)c1)c1cc(Cl)c(O)c(Cl)c1` [TCBPA, 3,3´,5,5´-tetrachlorobisphenol A], in data set [1], the Relative potency turned out to be 0.0444. Moreover, in data set [1] (read-out: IC50), the half-inhibitory concentration (IC50) is 5.18 µM. In data set [1] (setting [3]), the equilibrium dissociation constant (Kd) amounted to 2.7 µM.
Consider `O=P(Oc1ccccc1)(Oc1ccccc1)Oc1ccccc1` [TPP, triphenyl phosphate], for which, in data set [1], the IC50 turned out to be 40 µM, the dissociation constant Kd came out at 20.9 µM and the Relative potency turned out to be 0.0058.
In turn, `[Cl][Sn]([c]1ccccc1)([c]1ccccc1)[c]1ccccc1` [TPT, triphenyltin chloride] registered a Relative potency in data set [1] of 0.1337. Further, the IC50 in data set [1] (read-out: IC50) was determined as 1.72 µM. Further, the dissociation constant (Kd) in data set [1] (setting [3]) was found to be 0.9 µM.
As for `Oc1cc(Cl)ccc1Oc1ccc(Cl)cc1Cl` [Triclosan, triclosan], in data set [1], the IC50 was 12.5 µM, the dissociation constant (Kd) was determined as 6.52 µM and the Relative potency is 0.0184.
